Experiment: Solubility observed when preparing compounds for the cytotoxicity experiments
Format: physicochemical
Details: reason for exclusion from cytotoxicity experiments; stocks 1 mM in 100% DMSO
Experimental: HEK293 cells were plated at 70% density in 24-well plates at 37 °C. All compounds were first dissolved in 100% DMSO to give 1 mM as a stock for the following dilutions. […] Further, the cell viability was measured by the 3-(4,5-Dimethyl-2-thiazolyl)-2,5-diphenyl-2H-tetrazolium bromide (MTT) assay. After incubating for 1h, the reaction product was read at 570 nm using a Synergy HT microplate reader (BioTek Instruments, Winooski, VT, USA).

Row | SMILES | solubility
1 | CC(C)(C)NC(=O)C(OC(=O)c1ccc(B(O)O)cc1)c1ccnc2ccccc12 (centres unmarked) [Compound 5i, (4-((2-(Tert-Butylamino)-2-Oxo-1-(Quinolin-4-yl)ethoxy)carbonyl)phenyl)boronic Acid] | poor solubility
2 | CC(C)(C)NC(=O)COC(=O)c1ccc(B(O)O)c([N+](=O)[O-])c1 [Compound 5l, (4-((2-(Tert-Butylamino)-2-Oxoethoxy)carbonyl)-2-Nitrophenyl)boronic Acid] | poor solubility
3 | CC(C)(C)NC(=O)COC(=O)c1ccc(B(O)O)cc1 [Compound 5a, (4-((2-(Tert-Butylamino)-2-Oxoethoxy)carbonyl)phenyl)boronic Acid] | poor solubility
4 | CC(C)(C)NC(=O)C(OC(=O)c1ccc(B(O)O)cc1)c1ccccc1F (centres unmarked) [Compound 5h, (4-((2-(Tert-Butylamino)-1-(2-Fluorophenyl)-2-Oxoethoxy)carbonyl)phenyl)boronic Acid] | poor solubility
5 | CC(C)C(=O)OC(C(=O)NC(C)(C)C)c1ccc(F)c(B(O)O)c1 (centres unmarked) [Compound 4e, (5-(2-(Tert-Butylamino)-1-(Isobutyryloxy)-2-Oxoethyl)-2-Fluorophenyl)boronic Acid] | poor solubility

From paper PMC9000886, “Protection-Free Strategy for the Synthesis of Boro-Depsipeptides in Aqueous Media under Microwave-Assisted Conditions” (Molecules, 2022)
